Test results: patent US9017692B2, “Antimicrobial agent, bacterial strain, biosynthesis, and methods of use” (priority 2011, dated 2015)

Columns and labels:
[1] = tested on: MSSA ATCC 29213 SAU.42; experiment: microbe, parasite or virus in culture; details: SAU.42, MSSA ATCC 29213; NBS 96-well plates
Experimental: (§1) The activity of paenibacterin against several strains of Gram-positive and Gram-negative foodborne pathogens is summarized in Table 10. The data is reported as minimum inhibitory concentrations (MIC) as an average of three replicates for paenibacterin against the various listed bacterial strains. […] MICs were determined according to the CLSI broth microdilution method (see, Clinical and Laboratory Standards Institute (CLSI). 2009. Methods for dilution antimicrobial susceptibility tests for bacteria that grow aerobically; approved standard. […]. CLSI, Wayne, Pa.). Briefly, HPLC-purified paenibacterin was dissolved in methanol and diluted to appropriate concentration with cation-adjusted Mueller-Hinton II broth (Difco). Aliquots (25 μl) of serially-diluted paenibacterin was dispensed into wells of a 96-well plate; an equal amount of 1/10 diluted overnight bacterial culture was added to wells. Plates were incubated at 35° C. for 24 h. Cell growth after incubation was examined and determined using a microtiter plate reader at 600 nm. Concentration of paenibacterin is determined based on a molecular weight of 1604 Da.
(§2) The activity of paenibacterin was further tested against clinical isolates of the following Gram-positive bacteria: methicillin-sensitive Staphylococcus aureus (MSSA), methicillin-resistant S. aureus (MRSA), vancomycin-sensitive Enterococcus faecalis, vancomycin-resistant E. faecalis (VRE), Streptococcus pneumoniae, and laboratory derived daptomycin-resistant (DR) MSSA, MRSA, and VRE strains. The MICs were determined using the above described CLSI broth microdilution method, in which the method was performed with non-binding surface coated (NBS) 96-well plates.

[2] = tested on: WT ATCC 49619 SPN.31; experiment: microbe, parasite or virus in culture; details: SPN.31, WT ATCC 49619; NBS 96-well plates
Experimental: as §1, §2

[3] = tested on: DR-VRE from EFS.807 EFS.2731; experiment: microbe, parasite or virus in culture; details: EFS.2731, DR-VRE from EFS.807; NBS 96-well plates
Experimental: as §1, §2

[4] = tested on: DS-VRE ATCC 700802 EFS.807; experiment: microbe, parasite or virus in culture; details: EFS.807, DS-VRE ATCC 700802; NBS 96-well plates
Experimental: as §1, §2

[5] = tested on: DR-MSSA from SAU.42 SAU.278; experiment: microbe, parasite or virus in culture; details: SAU.278, DR-MSSA from SAU.42; NBS 96-well plates
Experimental: as §1, §2

[6] = tested on: MRSA ATCC 43300 SAU.399; experiment: microbe, parasite or virus in culture; details: SAU.399, MRSA ATCC 43300; NBS 96-well plates
Experimental: as §1, §2

[7] = tested on: WT ATCC 29212 EFS.43; experiment: microbe, parasite or virus in culture; details: EFS.43, WT ATCC 29212; NBS 96-well plates
Experimental: as §1, §2

[8] = tested on: DR-MRSA from MW2 SP SAU.1616; experiment: microbe, parasite or virus in culture; details: SAU.1616, DR-MRSA from MW2 SP; NBS 96-well plates
Experimental: as §1, §2

[9] = tested on: PAE.44; experiment: MIC, CLSI broth microdilution, Gram-negative clinical isolates; assay type: cell-based, Pseudomonas aeruginosa
Experimental: (§3) Plates were incubated at 35° C. for 24 h.
(§4) The activity of paenibacterin was also tested against clinical isolates of the following Gram-negative bacterial strains: four strains of the species Pseudomonas aeruginosa (PAE), three strains of the species Acinetobacter baumannii (ABA), two strains of the species Escherichia coli (ECO), and four strains of the species Klebsiella pneumoniae (KPN). Particularly, the strains of Gram-negative bacteria included polymyxin B-resistant (PMB-R) and polymyxin B-sensitive (PMB-S) strains of each above listed species. The MICs were determined using the above described CLSI broth microdilution method, in which the method was performed with both non-binding surface coated (NBS) and polystyrene (PS) 96-well plates (Tables 11 and 12, respectively). The MICs were generally lower in the NBS 96-well plates as compared to the PS 96-well plates.

[10] = tested on: PAE.2281; experiment: as above; assay type: cell-based, Pseudomonas aeruginosa
Experimental: as §3, §4

Measured: Minimum inhibitory concentration (MIC)

paenibacterin
32 µg/mL: [1] | [6] | [8]
8 µg/mL: [3] | [9]; non-binding surface coated (NBS) 96-well plates
32 to 64 µg/mL: [7] | [10]; NBS 96-well plates
64 µg/mL: [2] | [4] | [5] | [9]; polystyrene (PS) 96-well plates | [10]; PS 96-well plates
